The target of data set [1] is T1, P. falciparum SHMT (PfSHMT) (Plasmodium falciparum, UniProt Q8I566).
T1 sequence (Q8I566 1-442): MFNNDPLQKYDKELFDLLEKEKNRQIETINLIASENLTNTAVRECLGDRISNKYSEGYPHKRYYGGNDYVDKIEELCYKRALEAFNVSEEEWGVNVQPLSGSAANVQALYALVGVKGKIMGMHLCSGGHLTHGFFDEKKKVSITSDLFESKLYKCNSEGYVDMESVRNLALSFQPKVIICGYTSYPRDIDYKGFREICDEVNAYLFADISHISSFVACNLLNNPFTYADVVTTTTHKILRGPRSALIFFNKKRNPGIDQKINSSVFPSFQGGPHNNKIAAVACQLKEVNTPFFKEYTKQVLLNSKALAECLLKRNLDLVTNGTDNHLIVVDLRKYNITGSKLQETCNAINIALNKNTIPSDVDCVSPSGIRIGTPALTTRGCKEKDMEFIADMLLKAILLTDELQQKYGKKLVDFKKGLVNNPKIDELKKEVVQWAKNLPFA
The data set is described as follows: PfSHMT activity inhibition by antifolates. It counts as biochemical.

For data set [2], the target named is PfSHMT protein interaction with SHMT or DHFR-TS mRNA (Plasmodium falciparum, UniProt Q8I566). The data set is described as follows: RNA-protein interaction gel shift, competition with substrates. It counts as binding. The settings on record: 500 nM SHMT protein, 0.5 nM labeled RNA; 125 μM PLP, 3 mM serine, 3 mM THF. In general terms: In EMSA bound probe runs differently from free probe, usually more slowly.

Data set [3] deals with T1, P. falciparum SHMT (PfSHMT). The data set can be described thus: Michaelis-Menten constants of PfSHMT substrates. It counts as biochemical.
For data set [4], the target named is P. falciparum SHMT apo enzyme (Plasmodium falciparum, UniProt Q8I566). The data set is described as follows: Activity of apo PfSHMT with and without PLP. The settings on record: apo enzyme with vs without PLP (Fig 4A). It counts as biochemical.
The data set “SEC” concerns the molecule itself. The data set can be described thus: SEC. Background: SEC sorts molecules by how far they enter the pores of the column.

Molecule `CCc1nc(N)nc(N)c1-c1ccc(Cl)cc1` [pyrimethamine] had an IC50 in data set [1] of more than 500 µM.

In turn, `Cc1nc2ccc(CN(C)c3ccc(C(=O)N[C@@H](CCC(=O)O)C(=O)O)s3)cc2c(=O)[nH]1` [D1694] displayed an IC50 in data set [1] of more than 500 µM.

Regarding `N[C@@H](CO)C(=O)O` [serine], in data set [2], the “Effect on PfSHMT protein interaction with SHMT or DHFR-TS mRNA” value is on record as “not abrogated”.

As to `Nc1nc2[nH]cc(CCc3ccc(C(=O)N[C@@H](CCC(=O)O)C(=O)O)cc3)c2c(=O)[nH]1` [pemetrexed], the IC50 in data set [1] is more than 500 µM.

For the molecule `CN(Cc1cnc2nc(N)nc(N)c2n1)c1ccc(C(=O)N[C@@H](CCC(=O)O)C(=O)O)cc1` [methotrexate], in data set [1], the half-inhibitory concentration (IC50) was more than 500 µM.

tetrahydrofolate [THF]: the Vmax in data set [3] (from velocity vs. substrate fit) stood at 188.5 pmol/min. Moreover, in data set [3] (read-out: Km, P falciparum, Table 1, P. falciparum SHMT), the Michaelis-Menten constant (Km) came out at 3.4 mM.

As to `Cc1ncc(COP(=O)(O)O)c(C=O)c1O` [PLP, pyridoxal 5’-phosphate], the “Effect on PfSHMT protein interaction with SHMT or DHFR-TS mRNA” value in data set [2] is recorded as “not abrogated”. The “Enzyme activity of apo enzyme with PLP added to the reaction” value in data set [4] was “increased by more than ten fold”.

B1: Plasmodium falciparum serine hydroxymethyltransferase with an N-terminal histidine tag (enzyme, Plasmodium falciparum (strain 3D7), UniProt Q8I566 1-442, looked up)
chain: T1 sequence (Q8I566 1-442)
B1: in “SEC”, the “stoichiometry N” value came to 2.

The IC50 is the midpoint of a concentration-inhibition curve. Higher therefore signals weaker potency in that assay. For orientation: Vmax means the top rate of the reaction or transport when substrate is in excess. In general, Km refers to the substrate concentration at which the rate is half of its maximum. As a reminder, the stoichiometry N is the number of molecules, sites or subunits per partner or assembly.

Values taken from paper PMC2741015 (Molecular and biochemical parasitology, 2009).
